One assay deals with CK2a2 (Homo sapiens (Human), UniProt P19784). The assay can be described thus: Biochemical Assay for CK2 Activity. As to conditions: 33P-ATP radiochemical assay; read-out: IC50 CK2 a2. Here is the method:
Biochemical Assay for CK2 Activity
Purified CK2a2 (NP_001887; human full-length protein, GST tagged) from insect cells (final concentration 1.2 nM) is added to freshly prepared Base Reaction Buffer containing 20 mM Hepes (pH 7.5), 10 mM MgCl2, 1 mM EGTA, 0.02% Brij35, 0.02 mg/ml BSA, 0.1 mM Na3VO4, 2 mM DTT, 1% DMSO and CK2 sub [RRRDDDSDDD] (20 μM final). Test compounds in DMSO are then added and the mixture, followed by delivery of ^33P-ATP (specific activity 0.01 μCi/μl final) to initiate the reaction. The kinase reaction is incubated for 120 min at room temperature. The entire reaction mixture is washed through onto a P81 Phosphocellulose paper and washed three times for 10 minutes in 75 mM phosphoric acid and once in methanol prior to drying and scintillation counting.

The target in assay [1] is PASK (Homo sapiens (Human), UniProt Q96RG2). The assay can be described thus: PAS Kinase FRET Assay. As to conditions: TR-FRET assay; read-out: IC50 Kinase Domain. It counts as biochemical. In short, it runs like this:
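Reaction buffer: 50 mM HEPES, 10 mM MgCl2, 1 mM EGTA, 2 mM DTT, 0.01% Tween-20. Test compounds (eleven-point series prepared at 4× final) preceded PASK and substrate/ATP. Reaction ran 2 h at 25 °C in the dark, then stopped. Phospho-ULight peptide detected by Eu-antibody TR-FRET, 665/615 nm ratio.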
(Time-resolved FRET reads energy transfer from a long-lived donor to a nearby acceptor.)

Assay [2] concerns the target PASK (UniProt #Q96RG2; residues 879-1323) (Homo sapiens (Human), UniProt Q96RG2). As to the kind of experiment: PASK ATP Radiochemical Assay. It counts as biochemical. As to conditions: 33P-ATP radiochemical assay; read-out: IC50 Kinase Domain. Here is the method:
PASK ATP Radiochemical Assay Purified PASK (UniProt #Q96RG2; human recombinant N-terminal GST tagged construct, residues 879-1323) from insect cells (final concentration 5 nM) is added to freshly prepared Base Reaction Buffer containing 20 mM HEPES (pH 7.5), 10 mM MgCl2, 1 mM EGTA, 0.02% Brij35, 0.02 mg/ml BSA, 0.1 mM Na3VO4, 2 mM DTT, 1% DMSO and Myelin Basic Protein (20 μM final). Test compounds in DMSO are then added and the mixture, followed by delivery of ^33P-ATP (specific activity 0.01 μCi/μl final) to initiate the reaction. The kinase reaction is incubated for 120 min at room temperature. The entire reaction mixture is washed through onto a P81 Phosphocellulose paper and washed three times for 10 minutes in 75 mM phosphoric acid and once in methanol prior to drying and scintillation counting.

Where only a bound is given, the exact number is not on record here.

Sequence of PASK (Homo sapiens (Human), UniProt Q96RG2) (Q96RG2 999-1251): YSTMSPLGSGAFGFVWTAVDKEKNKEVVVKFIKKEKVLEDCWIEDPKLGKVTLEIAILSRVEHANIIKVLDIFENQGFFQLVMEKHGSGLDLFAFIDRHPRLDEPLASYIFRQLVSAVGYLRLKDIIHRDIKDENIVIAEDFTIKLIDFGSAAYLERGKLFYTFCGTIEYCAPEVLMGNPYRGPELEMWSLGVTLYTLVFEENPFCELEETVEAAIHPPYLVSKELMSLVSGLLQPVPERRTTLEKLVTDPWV
Sequence of PASK (UniProt #Q96RG2; residues 879-1323) (Homo sapiens (Human), UniProt Q96RG2) (Q96RG2 879-1323): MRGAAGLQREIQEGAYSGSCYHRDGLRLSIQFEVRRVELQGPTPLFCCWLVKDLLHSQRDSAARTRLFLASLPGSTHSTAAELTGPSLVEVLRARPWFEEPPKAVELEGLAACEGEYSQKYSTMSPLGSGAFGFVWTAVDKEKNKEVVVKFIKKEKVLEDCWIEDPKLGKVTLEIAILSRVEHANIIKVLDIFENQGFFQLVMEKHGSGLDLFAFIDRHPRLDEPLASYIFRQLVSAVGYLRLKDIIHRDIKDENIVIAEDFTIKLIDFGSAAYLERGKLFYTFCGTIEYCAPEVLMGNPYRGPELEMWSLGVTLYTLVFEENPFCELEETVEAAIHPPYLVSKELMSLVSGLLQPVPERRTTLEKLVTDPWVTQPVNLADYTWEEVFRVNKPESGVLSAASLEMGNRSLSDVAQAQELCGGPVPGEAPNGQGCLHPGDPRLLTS
Sequence of CK2a2 (P19784 whole entry): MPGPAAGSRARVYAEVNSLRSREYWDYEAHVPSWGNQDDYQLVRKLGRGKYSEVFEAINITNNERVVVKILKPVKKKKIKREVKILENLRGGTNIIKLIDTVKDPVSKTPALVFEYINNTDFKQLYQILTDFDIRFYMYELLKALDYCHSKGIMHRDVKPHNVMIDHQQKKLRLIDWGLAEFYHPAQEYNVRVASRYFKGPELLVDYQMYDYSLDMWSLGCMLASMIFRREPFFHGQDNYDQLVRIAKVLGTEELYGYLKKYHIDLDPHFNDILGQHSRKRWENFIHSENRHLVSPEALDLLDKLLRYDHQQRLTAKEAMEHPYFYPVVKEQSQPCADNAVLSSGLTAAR

For orientation: IC50 means the concentration that gives 50% inhibition. As for `COc1ccc(-c2cc(=O)n3ncc(-c4ccc(F)cc4)c3[nH]2)cc1` [Example 53, 3-(4-Fluorophenyl)-5-(4-methoxyphenyl)pyrazolo[1,5-a]pyrimidin-7(4H)-one], the concentration for half-maximal inhibition (IC50) at CK2a2 is no more than 10 µM.
On the same count and under the same terms, the value for `Cc1nn2c(=O)cc(-c3ccc4c(c3)OCCO4)[nH]c2c1-c1ccccc1` [Example 54, 5-(2,3-Dihydrobenzo[b][1,4]dioxin-6-yl)-2-methyl-3-phenylpyrazolo[1,5-a]pyrimidin-7(4H)-one] was no more than 10 µM; that for `Cc1nn2c(=O)cc(-c3ccc4c(c3)CCO4)[nH]c2c1-c1ccccc1` [Example 55, 5-(2,3-Dihydrobenzofuran-5-yl)-2-methyl-3-phenylpyrazolo[1,5-a]pyrimidin-7(4H)-one] was no more than 10 µM; that for `COc1ccc(-c2cc(=O)n3ncc(-c4ccccn4)c3[nH]2)cc1` [Example 56, 5-(4-Methoxyphenyl)-3-(pyridin-2-yl)pyrazolo[1,5-a]pyrimidin-7(4H)-one] was no more than 10 µM.
Same read-out and setting: the value for `Cc1nn2c(=O)cc(-c3ccccc3)[nH]c2c1Cc1ccc(Cl)cc1` [Example 61] was no more than 10 µM; that for `Cc1nn2c(=O)cc(-c3ccc(OC(C)C)cc3)[nH]c2c1Cc1ccc(Cl)cc1` [Example 63, 3-(4-Chlorobenzyl)-5-(4-isopropoxyphenyl)-2-methylpyrazolo[1,5-a]pyrimidin-7(4H)-one] was no less than 10 µM; that for `COc1cccc(-c2cc(=O)n3nc(C)c(Cc4ccc(Cl)cc4)c3[nH]2)c1` [Example 64, 3-(4-Chlorobenzyl)-5-(3-methoxyphenyl)-2-methylpyrazolo[1,5-a]pyrimidin-7(4H)-one] was no less than 10 µM.
Still for that read-out and setting: the value for `COC(=O)c1ccc(-c2cc(=O)n3nc(C)c(Cc4ccc(Cl)cc4)c3[nH]2)cc1` [Example 65, Methyl 4-(3-(4-chlorobenzyl)-2-methyl-7-oxo-4,7-dihydropyrazolo[1,5-a]pyrimidin-5-yl)benzoate] was no less than 10 µM; that for `Cc1nn2c(=O)cc(-c3ccc(C(N)=O)cc3)[nH]c2c1Cc1ccc(Cl)cc1` [Example 66, 4-(3-(4-Chlorobenzyl)-2-methyl-7-oxo-4,7-dihydropyrazolo[1,5-a]pyrimidin-5-yl)benzamide] was no less than 10 µM.
For the compound `Cc1nn2c(=O)cc(-c3ccc(C(F)(F)F)cc3)[nH]c2c1Cc1ccc(Cl)cc1` [Example 67, 3-(4-Chlorobenzyl)-2-methyl-5-(4-(trifluoromethyl)phenyl)pyrazolo[1,5-a]pyrimidin-7(4H)-one], the IC50 at CK2a2 is no less than 10 µM.
For the compound `COc1ccc(-c2cc(=O)n3nc(C)c(Cc4ccccc4)c3[nH]2)cc1OC` [Example 68, 3-Benzyl-5-(3,4-dimethoxyphenyl)-2-methylpyrazolo[1,5-a]pyrimidin-7(4H)-one], the IC50 on CK2a2 is no less than 10 µM.
The same measure, in the same setting: the value for `COc1ccc(-c2cc(=O)n3nc(C)c(Cc4ccc(Cl)cc4)c3[nH]2)cc1OC` [Example 69, 3-(4-Chlorobenzyl)-5-(3,4-dimethoxyphenyl)-2-methylpyrazolo[1,5-a]pyrimidin-7(4H)-one] was no less than 10 µM.
On to `COc1ccc(-c2cc(=O)n3nc(C)c(Cc4ccccc4Cl)c3[nH]2)cc1` [Example 70, 3-(2-Chlorobenzyl)-5-(4-methoxyphenyl)-2-methylpyrazolo[1,5-a]pyrimidin-7-(4H)-one], for which the results for the IC50 on PASK [1] and on CK2a2 were no more than 10 µM and no less than 10 µM, respectively.
`Cc1nn2c(=O)cc(-c3cccnc3)[nH]c2c1-c1ccc(F)cc1` [Example 77, 3-(4-Fluorophenyl)-2-methyl-5-(pyridin-3-yl)pyrazolo[1,5-a]pyrimidin-7(4H)-one]: the IC50 at PASK [2] and at CK2a2 was no more than 10 µM in each case.
As for `O=c1cc(-c2ccccn2)[nH]c2c(-c3ccc(F)cc3)cnn12` [Example 79, 3-(4-Fluorophenyl)-5-(pyridin-2-yl)pyrazolo[1,5-a]pyrimidin-7(4H)-one], the concentration for half-maximal inhibition (IC50) on PASK [2] and on CK2a2 was no more than 10 µM throughout.
As to `O=c1cc(-c2ccc3c(c2)OCCO3)[nH]c2c(-c3ccc(N4CCCCC4)nc3)cnn12` [Example 89, 5-(2,3-Dihydrobenzo[b][1,4]dioxin-6-yl)-3-(6-(piperidin-1-yl)pyridin-3-yl)pyrazolo[1,5-a]pyrimidin-7(4H)-one], the IC50 at PASK [1] and on CK2a2 was no more than 10 µM in each case.
On to `O=c1cc(-c2ccc3c(c2)OCCO3)[nH]c2c(-c3cccc(F)c3)cnn12` [Example 91, 5-(2,3-Dihydrobenzo[b][1,4]dioxin-6-yl)-3-(3-fluorophenyl)pyrazolo[1,5-a]pyrimidin-7(4H)-one], for which the IC50 on PASK [1] and on CK2a2 was no more than 10 µM each time.
For `O=c1cc(-c2cc3ccccc3o2)[nH]c2c(-c3ccccn3)cnn12` [Example 93, 5-(Benzofuran-2-yl)-3-(pyridin-2-yl)pyrazolo[1,5-a]pyrimidin-7(4H)-one], the concentration for half-maximal inhibition (IC50) at PASK [2] and at PASK [1] was no more than 10 µM each time.
For the compound `O=c1cc(-c2ccc3cc[nH]c3c2)[nH]c2c(-c3ccccc3)cnn12` [Example 95, 5-(1H-Indol-6-yl)-3-phenylpyrazolo[1,5-a]pyrimidin-7(4H)-one], the IC50 on PASK [2] and at CK2a2 was no more than 10 µM throughout.
`O=c1cc(-c2ccc3c(c2)OCCO3)[nH]c2c(-c3cccnc3)c(O)nn12` [Example 101, 5-(2,3-Dihydrobenzo[b][1,4]dioxin-6-yl)-2-hydroxy-3-(pyridin-3-yl)pyrazolo[1,5-a]pyrimidin-7(4H)-one]: the IC50 at PASK [1] and at CK2a2 was no more than 10 µM in each case.
As for `O=c1cc(-c2cc3ccccc3o2)[nH]c2c(-c3ccccn3)cnn12` [Example 149, 5-(Benzofuran-2-yl)-3-(pyridin-2-yl)pyrazolo[1,5-a]pyrimidin-7(4H)-one], the IC50 at CK2a2 is no more than 10 µM.
On to `COc1cc2[nH]nnc2cc1-c1cc(=O)n2nc(O)c(-c3ccccn3)c2[nH]1` [Example 244, 2-Hydroxy-5-(6-methoxy-1H-benzo[d][1,2,3]triazol-5-yl)-3-(pyridin-2-yl)pyrazolo[1,5-a]pyrimidin-7(4H)-one], for which the IC50 at PASK [1] was no more than 10 µM.
The same measure, in the same setting: for `COc1c(-c2cc(=O)n3nc(N)c(-c4ccccn4)c3[nH]2)ccc2[nH]nnc12` [Example 246, 2-Amino-5-(4-methoxy-1H-benzo[d][1,2,3]triazol-5-yl)-3-(pyridin-2-yl)pyrazolo[1,5-a]pyrimidin-7(4H)-one] the value was no more than 10 µM.
On the same count and under the same terms, for `COc1c(-c2cc(=O)n3nc(O)c(-c4ccccn4)c3[nH]2)ccc2[nH]nnc12` [Example 247, 2-Hydroxy-5-(4-methoxy-1H-benzo[d][1,2,3]triazol-5-yl)-3-(pyridin-2-yl)pyrazolo[1,5-a]pyrimidin-7(4H)-one] the value was no more than 10 µM.
Still for that read-out and setting: the value for `COc1c(-c2cc(=O)n3nc(C)c(-c4ccccn4)c3[nH]2)ccc2[nH]nnc12` [Example 248, 5-(4-Methoxy-1H-benzo[d][1,2,3]triazol-5-yl)-2-methyl-3-(pyridin-2-yl)pyrazolo[1,5-a]pyrimidin-7(4H)-one] was no more than 10 µM.
Turning to `CC(C)Oc1c(-c2cc(=O)n3ncc(-c4ccccn4)c3[nH]2)ccc2c1OCO2` [Example 250, 5-(4-Isopropoxybenzo[d][1,3]dioxol-5-yl)-3-(pyridin-2-yl)pyrazolo[1,5-a]pyrimidin-7(4H)-one], the half-inhibitory concentration (IC50) on PASK [1] was no more than 10 µM.
As for `Cc1nn2c(=O)cc(-c3ccc4c(c3OC(C)C)OCO4)[nH]c2c1-c1ccccn1` [Example 251, 5-(4-Isopropoxybenzo[d][1,3]dioxol-5-yl)-2-methyl-3-(pyridin-2-yl)pyrazolo[1,5-a]pyrimidin-7(4H)-one], the 50% inhibitory concentration (IC50) at PASK [1] is no more than 10 µM.
Regarding `CNC(=O)Oc1ccc(-c2cc(=O)n3nc(C)c(-c4ccccn4)c3[nH]2)cc1` [Example 252, 4-(2-Methyl-7-oxo-3-(pyridin-2-yl)-4,7-dihydropyrazolo[1,5-a]pyrimidin-5-yl)phenyl methylcarbamate], the IC50 at PASK [1] is no more than 10 µM.
As for `CNC(=O)Oc1ccc(-c2cc(=O)n3ncc(-c4ccccn4)c3[nH]2)cc1` [Example 253, 4-(7-Oxo-3-(pyridin-2-yl)-4,7-dihydropyrazolo[1,5-a]pyrimidin-5-yl)phenyl methylcarbamate], at PASK [1], the 50% inhibitory concentration (IC50) was no more than 10 µM.
On the same count and under the same terms, for `O=c1cc(-c2ccc(-c3nnco3)cc2)[nH]c2c(-c3ccccn3)cnn12` [Example 255, 5-(4-(1,3,4-Oxadiazol-2-yl)phenyl)-3-(pyridin-2-yl)pyrazolo[1,5-a]pyrimidin-7(4H)-one] the value was no more than 10 µM.

The values are drawn from patent US10953012B2, “Heterocyclic compounds for the inhibition of pask” (BioEnergenix LLC, priority 2011, dated 2021).
